Data: ChEMBL document CHEMBL4052672, “Discovery of β-d-2'-deoxy-2'-dichlorouridine nucleotide prodrugs as potent inhibitors of hepatitis C virus replication” (Bioorg Med Chem Lett, 2017)
The source made the active and inactive calls. No cut-off for these calls is given here.

Assays:
Hepatitis C virus [1] = assay: Antiviral activity against HCV genotype 1b subgenomic replicon infected in human HuH7 Luc-neo cells assessed as inhibition of viral replication by luciferase reporter gene assay; format: functional, cell-based, Hepacivirus hominis; conditions: Huh-7
[2] = Cytotoxic activity against human HuH7 cells incubated for 6 days by CCK8 assay; format: cell-based, Huh-7
[3] = tested on: Hepatitis C virus subtype 1b; assay: (§1) Inhibition of HCV genotype 1b NS5B Cdelta21 RNA dependent RNA polymerase using cIRES, GTP, UTP and CTP incubated for 30 mins in presence of [3H]-ATP/ATP mixture by scintillation counting method
[4] = Stability in human intestinal […] S9 fraction assessed as half life at 2 uM by LC-MS/MS method; format: ADME
[5] = Stability in human liver S9 fraction assessed as half life at 2 uM by LC-MS/MS method; format: ADME, tissue-based
[6] = Stability in human whole blood assessed as half life at 2 uM by LC-MS/MS method; format: ADME
[7] = as §1; design: species or system Hepatitis C virus subtype 1b
[8] = Inhibition of HCV genotype 1b NS5B RNA dependent RNA polymerase; design: species or system Hepatitis C virus subtype 1b
Hepatitis C virus [9] = assay: Antiviral activity against HCV genotype 2a subgenomic replicon; format: functional, Hepacivirus hominis
[10] = Drug metabolism in human hepatocytes assessed as ((2R,3R,5R)-4,4-dichloro-5-(2,4-dioxo-3,4-dihydropyrimidin-1(2H)-yl)-3-hydroxytetrahydrofuran-2-yl)methyl tetrahydrogen triphosphate formation at 10 uM after 1 to 24 hrs by LC-MS/MS method; format: ADME, cell-based, Hepatocyte
Hepatitis C virus [11] = assay: Antiviral activity against HCV genotype 1b subgenomic replicon expressing NS5B RNA dependent RNA polymerase S282T mutant infected in human HuH7 Luc-neo cells assessed as inhibition of viral replication by luciferase reporter gene assay relative to wild type HCV genotype 1b; format: functional, Hepacivirus hominis
Canis familiaris [12] = assay: Drug metabolism in dog liver assessed as ((2R,3R,5R)-5-(4-amino-2-oxopyrimidin-1(2H)-yl)-4,4-dichloro-3-hydroxytetrahydrofuran-2-yl)methyl tetrahydrogen triphosphate formation at 50 mg/kg/day, po for 4 days measured at 4 hrs on day 4; format: ADME, organism-based, Canis lupus familiaris; conditions: in vivo
[13] = Drug metabolism in human hepatocytes assessed as ((2R,3R,5R)-5-(4-amino-2-oxopyrimidin-1(2H)-yl)-4,4-dichloro-3-hydroxytetrahydrofuran-2-yl)methyl tetrahydrogen triphosphate formation at 10 uM after 1 to 24 hrs by LC-MS/MS method; format: ADME, cell-based, Hepatocyte
Hepatitis C virus [14] = assay: Antiviral activity against HCV genotype 1a subgenomic replicon infected in human Huh7-Lunet cells assessed as inhibition of viral replication by luciferase reporter gene assay; format: functional, cell-based, Hepacivirus hominis; conditions: subtype 1a, Huh-7
Hepatitis C virus [15] = assay: Antiviral activity against HCV genotype 5a subgenomic replicon infected in human Huh7-Lunet cells assessed as inhibition of viral replication by luciferase reporter gene assay; format: functional, cell-based, Hepacivirus hominis; conditions: Huh-7
Hepatitis C virus [16] = assay: Antiviral activity against HCV genotype 6a subgenomic replicon infected in human Huh7-Lunet cells assessed as inhibition of viral replication by luciferase reporter gene assay; format: functional, cell-based, Hepacivirus hominis; conditions: Huh-7
Canis familiaris [17] = assay: Drug metabolism in dog liver assessed as ((2R,3R,5R)-4,4-dichloro-5-(2,4-dioxo-3,4-dihydropyrimidin-1(2H)-yl)-3-hydroxytetrahydrofuran-2-yl)methyl tetrahydrogen triphosphate formation at 50 mg/kg/day, po for 4 days measured at 4 hrs on day 4; format: ADME, organism-based, Canis lupus familiaris; conditions: in vivo
Hepatitis C virus [18] = assay: Antiviral activity against HCV genotype 3a subgenomic replicon infected in human Huh7-Lunet cells assessed as inhibition of viral replication by luciferase reporter gene assay; format: functional, cell-based, Hepacivirus hominis; conditions: Huh-7
Hepatitis C virus [19] = assay: Antiviral activity against HCV genotype 4a subgenomic replicon infected in human Huh7-Lunet cells assessed as inhibition of viral replication by luciferase reporter gene assay; format: functional, cell-based, Hepacivirus hominis; conditions: Huh-7
Canis familiaris [20] = assay: Drug metabolism in dog liver assessed as ((2R,3R,5R)-5-(4-amino-2-oxopyrimidin-1(2H)-yl)-4,4-dichloro-3-hydroxytetrahydrofuran-2-yl)methyl tetrahydrogen triphosphate formation at 50 mg/kg/day, po for 4 days; format: ADME, organism-based, Canis lupus familiaris; conditions: in vivo, 96 h
Hepatitis C virus [21] = assay: Antiviral activity against HCV genotype 1b subgenomic replicon; format: functional, Hepacivirus hominis
[22] = Drug metabolism in human hepatocytes assessed as cytidine triphosphate metabolite formation at 10 uM after 1 to 24 hrs by LC-MS/MS method; format: ADME, cell-based, Hepatocyte
[23] = Drug metabolism in human hepatocytes assessed as ((2R,3R,4R,5R)-5-(2,4-dioxo-3,4-dihydropyrimidin-1(2H)-yl)-4-fluoro-3-hydroxy-4-methyltetrahydrofuran-2-yl)methyl tetrahydrogen triphosphate formation at 10 uM after 1 to 24 hrs by LC-MS/MS method; format: ADME, cell-based, Hepatocyte

| SMILES | EC50 (Hepatitis C virus [1]) [nM] | CC50 at 144 h [2] [nM] | half-life at 2 µM [4] [min] | half-life at 2 µM [5] [min] | half-life at 2 µM [6] [min] | further results |
| --- | --- | --- | --- | --- | --- | --- |
| O=c1ccn([C@@H]2O[C@H](CO)[C@@H](O)C2(Cl)Cl)c(=O)[nH]1 | > 50000 | > 100000 | – | – | – | – |
| O=c1ccn([C@@H]2O[C@H](COP(=O)(O)OP(=O)(O)OP(=O)(O)O)[C@@H](O)C2(Cl)Cl)c(=O)[nH]1 | – | – | – | – | – | inhibition [3]: Active |
| CC(C)OC(=O)[C@H](C)NP(=O)(OC[C@H]1O[C@@H](n2ccc(=O)[nH]c2=O)C(Cl)(Cl)[C@@H]1O)Oc1cccc(C2(C)CC2)c1 (single isomer, unassigned) | 230 | > 100000 | 20 | 4 | 12 | – |
| CC(C)OC(=O)[C@H](C)NP(=O)(OC[C@H]1O[C@@H](n2ccc(=O)[nH]c2=O)C(Cl)(Cl)[C@@H]1O)Oc1cccc(C2CCC2)c1 (single isomer, unassigned) | 220 | > 100000 | 20 | 3 | 8 | – |
| Nc1ccn([C@@H]2O[C@H](COP(=O)(O)OP(=O)(O)OP(=O)(O)O)[C@@H](O)C2(Cl)Cl)c(=O)n1 | – | – | – | – | – | Ki [7]: 200 nM |
| C[C@H](NP(=O)(OC[C@H]1O[C@@H](n2ccc(=O)[nH]c2=O)C(Cl)(Cl)[C@@H]1O)Oc1ccccc1)C(=O)OC1CCCCC1 (single isomer, unassigned) | 160 | > 100000 | 70 | 3 | 20 | – |
| CC[C@@H](C)OC(=O)[C@H](C)NP(=O)(OC[C@H]1O[C@@H](n2ccc(=O)[nH]c2=O)C(Cl)(Cl)[C@@H]1O)Oc1ccccc1 (single isomer, unassigned) | 110 | > 100000 | 140 | 8 | 11 | – |
| O=c1ccn([C@@H]2O[C@H](COP(=O)(O)OP(=O)(O)OP(=O)(O)O)[C@@H](O)C2(F)F)c(=O)[nH]1 | – | – | – | – | – | IC50 [8]: > 100000 nM |
| CC(C)OC(=O)[C@H](C)N[P@@](=O)(OC[C@H]1O[C@@H](n2ccc(=O)[nH]c2=O)C(Cl)(Cl)[C@@H]1O)Oc1ccccc1 | 56 | > 100000 | 1380 | 43 | 27 | EC50 (Hepatitis C virus [9]): 18 nM; Drug metabolism [10]: Metabolite_Detected; Ratio EC50 (Hepatitis C virus [11]): 4.1; Drug metabolism (Canis familiaris [12]): 0.93 µM; Drug metabolism [13]: Metabolite_Detected; EC50 (Hepatitis C virus [14]): 70 nM; EC50 (Hepatitis C virus [15]): 53 nM; EC50 (Hepatitis C virus [16]): 69 nM; Drug metabolism (Canis familiaris [17]): 3.5 µM; EC50 (Hepatitis C virus [18]): 68 nM; EC50 (Hepatitis C virus [19]): 66 nM; Drug metabolism (Canis familiaris [20]): Metabolite_Detected |
| CC(C)OC(=O)[C@H](C)NP(=O)(OC[C@H]1O[C@@H](n2ccc(=O)[nH]c2=O)C(Cl)(Cl)[C@@H]1O)Oc1ccc(C2(C)CC2)cc1 (single isomer, unassigned) | 340 | 62000 | 60 | 10 | 8 | – |
| CC(C)OC(=O)[C@H](C)NP(=O)(OC[C@H]1O[C@@H](n2ccc(=O)[nH]c2=O)C(F)(F)[C@@H]1O)Oc1ccccc1 (single isomer, unassigned) | – | – | – | – | – | EC50 (Hepatitis C virus [21]): 970 nM |
| C[C@@]1(F)[C@H](O)[C@@H](COP(=O)(O)OP(=O)(O)OP(=O)(O)O)O[C@H]1n1ccc(=O)[nH]c1=O [GS-461203] | – | – | – | – | – | Ki [8]: 490 nM |
| CC[C@H](C)OC(=O)[C@H](C)NP(=O)(OC[C@H]1O[C@@H](n2ccc(=O)[nH]c2=O)C(Cl)(Cl)[C@@H]1O)Oc1ccccc1 (single isomer, unassigned) | 83 | > 100000 | 140 | 7 | 11 | – |
| CC(C)OC(=O)[C@H](C)N[P@@](=O)(OC[C@H]1O[C@@H](n2ccc(=O)[nH]c2=O)[C@](C)(F)[C@@H]1O)Oc1ccccc1 | – | – | – | – | – | EC50 (Hepatitis C virus [21]): 92 nM; EC50 (Hepatitis C virus [9]): 50 nM; Drug metabolism [22]: Metabolite_Detected; Drug metabolism [23]: Metabolite_Detected; Ratio EC50 (Hepatitis C virus [11]): 7.8; EC50 (Hepatitis C virus [14]): 170 nM; EC50 (Hepatitis C virus [15]): 120 nM; EC50 (Hepatitis C virus [16]): 180 nM; EC50 (Hepatitis C virus [18]): 130 nM; EC50 (Hepatitis C virus [19]): 230 nM |
